Data: BigSolDB 2.1

O=C1CCC(c2ccc(Cl)c(Cl)c2)c2ccccc21 (configuration not stated)
Conditions | solubility (mole fraction)
in DMF, 278.16 K | 0.0335
in DMF, 283.37 K | 0.0408
in DMF, 288.12 K | 0.0487
in DMF, 293.13 K | 0.059
in DMF, 298.17 K | 0.0717
in DMF, 303.28 K | 0.0881
in DMF, 308.28 K | 0.106
in DMF, 313.32 K | 0.129
in DMF, 318.27 K | 0.155
in THF, 278.04 K | 0.0699
in THF, 282.93 K | 0.0823
in THF, 288.33 K | 0.096
in THF, 293.28 K | 0.109
in THF, 298.24 K | 0.124
in THF, 302.94 K | 0.14
in THF, 308.34 K | 0.162
in THF, 313.52 K | 0.187
in acetone, 282.13 K | 0.0162
in acetone, 288.02 K | 0.0217
in acetone, 292.83 K | 0.0261
in acetone, 298.28 K | 0.0321
in acetone, 303.23 K | 0.0397
in acetone, 307.94 K | 0.0498
in acetone, 313.74 K | 0.0673
in acetone, 318.56 K | 0.0871
in acetone, 323.57 K | 0.114
in ethanol, 283.12 K | 0.00171
in ethanol, 288.27 K | 0.0021
in ethanol, 293.38 K | 0.00252
in ethanol, 298.04 K | 0.00303
in ethanol, 302.93 K | 0.00376
in ethanol, 308.32 K | 0.0049
in ethanol, 314.17 K | 0.00667
in ethanol, 318.74 K | 0.00852
in ethanol, 323.26 K | 0.0108
in isopropanol, 278.12 K | 0.000955
in isopropanol, 283.38 K | 0.00128
in isopropanol, 288.33 K | 0.00163
in isopropanol, 293.07 K | 0.00209
in isopropanol, 298.33 K | 0.00278
in isopropanol, 303.36 K | 0.0037
in isopropanol, 308.46 K | 0.00496
in isopropanol, 313.26 K | 0.00649
in isopropanol, 318.54 K | 0.00864
in methanol, 277.93 K | 0.00087
in methanol, 283.06 K | 0.00107
in methanol, 288.28 K | 0.00141
in methanol, 293.42 K | 0.00186
in methanol, 298.04 K | 0.00235
in methanol, 302.77 K | 0.00293
in methanol, 308.56 K | 0.00372
in methanol, 313.53 K | 0.00446
in methanol, 319.04 K | 0.00533
in toluene, 278.18 K | 0.0391
in toluene, 283.13 K | 0.0461
in toluene, 288.28 K | 0.0548
in toluene, 293.22 K | 0.0649
in toluene, 298.12 K | 0.0771
in toluene, 303.14 K | 0.0924
in toluene, 308.46 K | 0.112
in toluene, 313.43 K | 0.135
in toluene, 318.34 K | 0.161
